Laboratory results as given in patent US8975241B2, “Composition for treating and preventing obesity including high water-soluble 2-hydroxypropyl-betacyclodextrin as effective component” (Song Ho Biomed Co., Ltd., priority 2009, dated 2015).

Tests used:
Type in all cases: in vivo
[1] = test system: mouse model with obesity caused by a high fat diet; experiment: Weights of body fat and liver after autonomically drinking in mouse model with obesity caused by high fat diet
Protocol: The animals induced with obesity in the above <Example 1> drank autonomically HPBCD with 10, 15, and 20% (W/V) concentrations for 3 days and then their autopsies were conducted. The mice were killed by using CO2 gas; their abdomens were cut; their genital fats, intra-abdominal fats, and livers were isolated; then their weights were measured using a chemical balance; average weight of three animals was calculated.

[2] = test system: mouse model with obesity caused by a high fat diet; experiment: Change in body weight by autonomically drinking in mouse model with obesity caused by high fat diet; settings: 15% (w/v) in drinking water
Protocol: (§1) Male C57BL/6J mice (Five age of the week, KRIBB, Korea) were accommodated for 1 week, and then were induced with obesity by giving a high fat diet (60% fat kcal, Research Diets) for 15 days. The weights of the animals that were induced with obesity were equally divided into 3 animals as one group. And then, the solvent-control group drank sterilized distilled water, autonomically. Hydroxypropyl-β-cyclodextrin (HPBCD) was dissolved in sterilized distilled water to be 10, 15, and 20% (W/V) concentrations for drinking autonomically. A change in body weight was daily measured to all of animals during the test; the fixed amount of feeds was provided at the day of measuring body weight, and then an amount of intake per a group (g/day) was calculated by measuring a residual amount of feeds at the next day. A change in body weight was measured during the test using α-cyclodextrin (α-CD) instead of 2-hydroxypropyl-β-cyclodextrin (HPBCD) in the same method as the above <Example 1>.

[3] = test system: mouse model with obesity caused by a high fat diet; experiment: Amount of feed intake by autonomically drinking in mouse model with obesity caused by high fat diet; settings: for Amount of Feed Intake: per group
Protocol: as §1, with “day.” for “day. A change in body weight was measured during the test using α-cyclodextrin (α-CD) instead of 2-hydroxypropyl-β-cyclodextrin (HPBCD) in the same method as the above <Example 1>.”

[4] = test system: high fat diet-mouse; experiment: Change in body weight by oral administration in high fat diet-mouse
Protocol: Male C57BL/6J mice (Five age of the week, KRIBB, Korea) were accommodated for 1 week. And then, the weights of the animals were equally divided into 5 animals as one group. While a high fat diet (60% fat kcal) was provided, sterilized distilled water and HPBCDs with 10, 20, and 40% (W/V) were orally administered at three times (Morning, Afternoon, Evening) a day for 5 days in 0.2 ml per 20 g body weight of a mouse at the same time. A change in body weight was measured to all of the animals during the test at one time per day; the fixed amount of feeds was provided at the day of measuring body weight, and then an average amount of intake per an animal (g/mouse/day) was calculated by measuring a residual amount of feeds at the next day.
A body weight was measured by using the same conditions as the above <Example 3>, except that BCDs with 10 and 20% (W/V) concentrations were used instead of HPBCDs with 10, 20, and 40% (W/V) concentrations.
A change in body weight was measured during the test using α-CD instead of HPBCD in the same method as the above <Example 3>.

[5] = 10% (w/v) in drinking water for 3 days
[6] = 10, 15, 20% (W/V) autonomically drinking
[7] = 15% (w/v) in drinking water for 3 days
[8] = 20% (w/v) in drinking water for 3 days

2-hydroxypropyl-β-cyclodextrin [HPBCD]
Total Amount of Fat [1, 5]: 1615.0 ± 212.3 mg
Weight of Genital Fat [1, 5]: 594.0 ± 95.0 mg
Weight of Intra-abdominal Fat [1, 5]: 158.8 ± 36.3 mg
Weight of Liver [1, 5]: 999.3 ± 150.2 mg
Weight of Subcutaneous Fat [1, 5]: 862.2 ± 86.7 mg
weight of liver vs control group [1, 6]: decreased depending on the concentrations
Total Amount of Fat [1, 7]: 1437.0 ± 282.0 mg
Weight of Genital Fat [1, 7]: 524.8 ± 67.1 mg
Weight of Intra-abdominal Fat [1, 7]: 147.2 ± 29.2 mg
Weight of Liver [1, 7]: 820.5 ± 66.0 mg
Weight of Subcutaneous Fat [1, 7]: 765.1 ± 238.8 mg
Total Amount of Fat [1, 8]: 1035.6 ± 324.3 mg
Weight of Genital Fat [1, 8]: 448.4 ± 108.6 mg
Weight of Intra-abdominal Fat [1, 8]: 97.8 ± 44.9 mg
Weight of Liver [1, 8]: 808.7 ± 76.8 mg
Weight of Subcutaneous Fat [1, 8]: 489.4 ± 183.5 mg
Change in body weight (%) ([2]; 1 Day): 96.1 ± 1.1 %
Change in body weight (%) ([2]; 3 Day): 90.9 ± 2.3 %
Amount of Feed Intake ([3]; 10% (w/v) in drinking water, 1 Day): 3.9 g/day
Amount of Feed Intake ([3]; 10% (w/v) in drinking water, 2 Day): 3.9 g/day
Amount of Feed Intake ([3]; 10% (w/v) in drinking water, 3 Day): 2.7 g/day
appetite / dietary intake [3, 6]: effect on suppressing appetite
Amount of Feed Intake ([3]; 15% (w/v) in drinking water, 1 Day): 4.1 g/day
Amount of Feed Intake ([3]; 15% (w/v) in drinking water, 2 Day): 4.5 g/day
Amount of Feed Intake ([3]; 15% (w/v) in drinking water, 3 Day): 4.0 g/day
Amount of Feed Intake ([3]; 20% (w/v) in drinking water, 1 Day): 4.2 g/day
Amount of Feed Intake ([3]; 20% (w/v) in drinking water, 2 Day): 4.2 g/day
Amount of Feed Intake ([3]; 20% (w/v) in drinking water, 3 Day): 2.6 g/day
Body weight as percent of initial body weight ([4]; 10% (w/v) oral three times a day, 0 Day): 100.0 ± 0.0%
Body weight as percent of initial body weight ([4]; 10% (w/v) oral three times a day, 1 Day): 99.3 ± 0.9 %
Body weight as percent of initial body weight ([4]; 10% (w/v) oral three times a day, 2 Day): 98.5 ± 1.3 %
Body weight as percent of initial body weight ([4]; 10% (w/v) oral three times a day, 3 Day): 98.4 ± 1.2 %
Body weight as percent of initial body weight ([4]; 10% (w/v) oral three times a day, 4 Day): 98.3 ± 1.2 %
Body weight as percent of initial body weight ([4]; 10% (w/v) oral three times a day, 5 Day): 98.7 ± 2.0 %
body weight as compared with the control group ([4]; 10, 20, 40% (W/V) oral): decreased depending on the concentrations
body weight as compared with the initial body weight ([4]; 10, 20, 40% (W/V) oral): significantly decreased
Body weight as percent of initial body weight ([4]; 20% (w/v) oral three times a day, 0 Day): 100.0 ± 0.0%
Body weight as percent of initial body weight ([4]; 20% (w/v) oral three times a day, 1 Day): 97.1 ± 1.0 %
Body weight as percent of initial body weight ([4]; 20% (w/v) oral three times a day, 2 Day): 95.6 ± 1.1 %
Body weight as percent of initial body weight ([4]; 20% (w/v) oral three times a day, 3 Day): 95.8 ± 1.3 %
Body weight as percent of initial body weight ([4]; 20% (w/v) oral three times a day, 4 Day): 96.6 ± 1.0 %
Body weight as percent of initial body weight ([4]; 20% (w/v) oral three times a day, 5 Day): 95.7 ± 1.5 %
Body weight as percent of initial body weight ([4]; 40% (w/v) oral three times a day, 0 Day): 100.0 ± 0.0%
Body weight as percent of initial body weight ([4]; 40% (w/v) oral three times a day, 1 Day): 95.0 ± 2.2 %
Body weight as percent of initial body weight ([4]; 40% (w/v) oral three times a day, 2 Day): 93.1 ± 3.4 %
Body weight as percent of initial body weight ([4]; 40% (w/v) oral three times a day, 3 Day): 93.5 ± 3.4 %
Body weight as percent of initial body weight ([4]; 40% (w/v) oral three times a day, 4 Day): 94.3 ± 2.9 %
Body weight as percent of initial body weight ([4]; 40% (w/v) oral three times a day, 5 Day): 94.1 ± 1.9 %
